Key:
Format in all cases: in vivo
[1] = system: Chenopodium album (lambsquarters); assay: greenhouse post-emergence herbicidal test, lambsquarters; conditions: for post-emergence action against lambsquarters: application rate 0.5 kg/ha a.s.; for post-emergence control of lambsquarters: application rate 1.0 kg/ha a.s.
Description: (§1) The culture containers used were plastic flowerpots containing loamy sand with approximately 3.0% of humus as the substrate. The seeds of the test plants were sown separately for each species.
(§2) For the post-emergence treatment, the test plants were first grown to a height of 3 to 15 cm, depending on the plant habit, and only then treated with the active ingredients which had been suspended or emulsified in water. For this purpose, the test plants were either sown directly and grown in the same containers, or they were first grown separately as seedlings and transplanted into the test containers a few days prior to treatment. The rate of application for the post-emergence treatment was 1.0 or 0.5 kg/ha of a.s. (active substance).
(§3) Depending on the species, the plants were kept at 10-25° C. or 20-35° C. The test period extended over 2 to 4 weeks. During this time, the plants were tended, and their response to the individual treatments was evaluated.
(§4) Evaluation was carried out using a scale from 0 to 100. 100 means no emergence of the plants, or complete destruction of at least the aerial parts, and 0 means no damage, or normal course of growth.
(§5) The plants used in the greenhouse experiments belonged to the following species: […]

[2] = system: Amaranthus retroflexus (pig weed); assay: greenhouse post-emergence herbicidal test, pig weed; conditions: for post-emergence action against pig weed: application rate 0.5 kg/ha a.s.; for post-emergence control of pig weed: application rate 1.0 kg/ha a.s.
Description: as §1, §2, §3, §4, §5

[3] = system: Setaria viridis (green foxtail); assay: greenhouse post-emergence herbicidal test, green foxtail; conditions: for post-emergence action against green foxtail: application rate 0.5 kg/ha a.s.; for post-emergence control of green foxtail: application rate 1.0 kg/ha a.s.
Description: as §1, §2, §3, §4, §5

CNC(=O)C(NC(=O)c1ccc(F)cc1C(F)(F)F)C(OC(=O)N(C)C)c1cnccc1Cl (racemic) [Compound 3.74]
very good: post-emergence action against lambsquarters [1] | post-emergence action against pig weed [2] | post-emergence action against green foxtail [3]

CC[Si](CC)(CC)OC(c1ccsc1)C(NC(=O)c1ccc(F)cc1C(F)(F)F)C(=O)NC [Compound 3.13, (2S,3R)-threo-4-Fluoro-N-(1-methylcarbamoyl-2-thiophen-3-yl-2-triethylsilanyloxyethyl)-2-trifluoromethylbenzamide]
very good: post-emergence control of lambsquarters [1] | post-emergence control of pig weed [2] | post-emergence control of green foxtail [3]

CC[Si](CC)(CC)OC(c1ccc(Cl)s1)[C@H](NC(=O)c1ccc(F)cc1C(F)(F)F)C(=O)NC (stereo partly drawn) [Compound 3.79]
very good: post-emergence control of lambsquarters [1] | post-emergence control of pig weed [2] | post-emergence control of green foxtail [3]

CNC(=O)C(NC(=O)c1ccc(F)cc1C(F)(F)F)C(O)c1ccc[n+]([O-])c1Cl (mixture of isomers) [Compound 3.41]
very good: post-emergence action against lambsquarters [1] | post-emergence action against pig weed [2] | post-emergence action against green foxtail [3]

CNC(=O)C(NC(=O)c1ccc(F)cc1C(F)(F)F)C(OC(=O)N(C)C)c1cccnc1F (racemic) [Compound 3.71]
very good: post-emergence action against lambsquarters [1] | post-emergence action against pig weed [2] | post-emergence action against green foxtail [3]

CNC(=O)C(NC(=O)c1ccccc1C(F)(F)F)C(OC(=O)N(C)C)c1ccn(C)n1 (mixture of isomers) [Compound 3.20]
very good: post-emergence control of lambsquarters [1] | post-emergence control of pig weed [2] | post-emergence control of green foxtail [3]

CNC(=O)C(NC(=O)c1ccc(F)cc1C(F)(F)F)C(OC(=O)N(C)C)c1ccc[n+]([O-])c1Cl (racemic) [Compound 3.75]
very good: post-emergence action against lambsquarters [1] | post-emergence action against pig weed [2] | post-emergence action against green foxtail [3]

CNC(=O)C(NC(=O)c1ccc(F)cc1C(F)(F)F)C(OC(C)=O)c1ccccn1 (mixture of isomers) [Compound 3.53]
very good: post-emergence action against lambsquarters [1] | post-emergence action against pig weed [2] | post-emergence action against green foxtail [3]

CNC(=O)C(NC(=O)c1ccc(F)cc1C(F)(F)F)C(OC(=O)N(C)C)c1ccsc1 (mixture of isomers) [Compound 3.11]
very good: post-emergence control of lambsquarters [1] | post-emergence control of pig weed [2] | post-emergence control of green foxtail [3]

CNC(=O)[C@@H](NC(=O)c1ccc(F)cc1C(F)(F)F)C(OC(=O)CSC)c1cccs1 (stereo partly drawn) [Compound 3.63]
very good: post-emergence action against lambsquarters [1] | post-emergence action against pig weed [2] | post-emergence action against green foxtail [3]

CNC(=O)C(NC(=O)c1ccc(F)cc1C(F)(F)F)C(OC(C)=O)c1cccnc1Cl (racemic) [Compound 3.56]
very good: post-emergence action against lambsquarters [1] | post-emergence action against pig weed [2] | post-emergence action against green foxtail [3]

CNC(=O)C(NC(=O)c1ccc(F)cc1C(F)(F)F)C(OC(C)=O)c1ccncc1Cl (racemic) [Compound 3.59]
very good: post-emergence action against lambsquarters [1] | post-emergence action against pig weed [2] | post-emergence action against green foxtail [3]

CNC(=O)C(NC(=O)c1ccc(F)cc1C(F)(F)F)C(O)c1cccnc1Cl (mixture of isomers) [Compound 3.39]
very good: post-emergence control of lambsquarters [1] | post-emergence control of pig weed [2] | post-emergence control of green foxtail [3]

CNC(=O)C(NC(=O)c1ccc(F)cc1C(F)(F)F)C(OC(=O)N(C)C)c1ccc(Cl)s1 (mixture of isomers) [Compound 3.66]
very good: post-emergence action against lambsquarters [1] | post-emergence action against pig weed [2] | post-emergence action against green foxtail [3]

CNC(=O)C(NC(=O)c1ccc(F)cc1C(F)(F)F)C(O)c1ccc(Cl)s1 (mixture of isomers) [Compound 3.28]
very good: post-emergence action against lambsquarters [1] | post-emergence action against pig weed [2] | post-emergence action against green foxtail [3]

CNC(=O)C(NC(=O)c1ccc(F)cc1C(F)(F)F)C(OC(C)=O)c1cnccc1Cl (racemic) [Compound 3.57]
very good: post-emergence action against lambsquarters [1] | post-emergence action against pig weed [2] | post-emergence action against green foxtail [3]

CNC(=O)[C@@H](NC(=O)c1ccc(F)cc1C(F)(F)F)C(OC(=O)N(C)C)c1cccs1 (stereo partly drawn) [Compound 3.65]
very good: post-emergence action against lambsquarters [1] | post-emergence action against pig weed [2] | post-emergence action against green foxtail [3]

CNC(=O)C(NC(=O)c1ccccc1C(F)(F)F)C(O)c1ccn(C)n1 (mixture of isomers) [Compound 3.14]
very good: post-emergence control of lambsquarters [1] | post-emergence control of pig weed [2] | post-emergence control of green foxtail [3]

CNC(=O)C(NC(=O)c1ccc(F)cc1C(F)(F)F)C(O)c1ccccn1 (mixture of isomers) [Compound 3.36]
very good: post-emergence action against lambsquarters [1] | post-emergence action against pig weed [2] | post-emergence action against green foxtail [3]

CNC(=O)C(NC(=O)c1ccc(F)cc1C(F)(F)F)C(OC(=O)N(C)C)c1ccccn1 (mixture of isomers) [Compound 3.69]
very good: post-emergence action against lambsquarters [1] | post-emergence action against pig weed [2] | post-emergence action against green foxtail [3]

CNC(=O)C(NC(=O)c1ccccc1C(F)(F)F)C(OC(=O)N(C)C)c1ccn(C)n1 (mixture of isomers) [Compound 3.21]
very good: post-emergence action against lambsquarters [1] | post-emergence action against pig weed [2] | post-emergence action against green foxtail [3]

CNC(=O)C(NC(=O)c1ccc(F)cc1C(F)(F)F)C(O)c1cccnc1Cl (mixture of isomers) [Compound 3.40]
very good: post-emergence control of lambsquarters [1] | post-emergence control of pig weed [2] | post-emergence control of green foxtail [3]

CNC(=O)C(NC(=O)c1ccc(F)cc1C(F)(F)F)C(OC(=O)N(C)C)c1cccs1 (mixture of isomers) [Compound 3.10]
very good: post-emergence action against lambsquarters [1] | post-emergence action against pig weed [2] | post-emergence action against green foxtail [3]
